Test results published in patent US20250085273A1, “NOVEL RAPID DRUG DISCOVERY FOR SEPSIS AND AGENTS FOR USE AS SEPSIS THERAPY” (priority 2023, published 2025).
Where two headings read alike, the source gives them in different places.

What was measured:
[1] = tested on: larval zebrafish locomotor behavior; format: in vivo; details: in vivo
Text: This assay is a modified version of the larval zebrafish light dark transition assay with an added UV light (wavelength=295 nm) phase to capture any compound specific neurological effects to UV light. (Basnet et al., 2019, Kokel et al., 2013, Peng et al., 2016). The light period assesses deviations from normal locomotor behavior while the rapid transition to dark provides a measure of stress response by identifying any deviations from the normal heightened locomotor activity caused by the transition to dark. The neurobehavioral assay used a custom trial control script created by Noldus Ethovision XT 15, and it was executed in a Noldus DanioVision system. Zebrafish larvae in microplates were allowed to habituate in the DanioVision system for 5 minutes under white light conditions prior to the start of the test. The neurobehavioral assay consisted of three phases: a 3-minute light phase (white light), a 3-minute dark phase (no light) and a 5 second UV phase (UV light only). The Danio Vision system captured larval zebrafish movement throughout this assay at 30 frames per second.
LC50s for the LPS tests were determined using the Trimmed Spearmen-Karber method (Hamilton et al., 1977). The tail edema and mortality data from the initial and confirmatory drug testing was analyzed using GraphPad Prism 9 using Fisher's Exact Test. Each drug treatment group was compared pairwise with the on-board positive control group on each test plate. Statistical significance was determined with values of p≤0.05. Neurological behavioral testing data was analyzed by Ethovision software that produced an activity analysis profile per frame for each well of the 96 well plates. Any dead embryos were removed from the data set, and the remaining data set was imported into Excel. The offset function in Excel was used to average the percentage of pixel change per 0.1 s for each plate. […] The behavioral data was then statistically analyzed by drug per phase using a 2 tailed t-test to determine statistical significance p≤0.01.

noradrenergic α1A = target: T1, noradrenergic α1A (Homo sapiens, UniProt P35348); details: read-out: affinity (Ki) α1A; cited from earlier work
T1 sequence (P35348 1-466): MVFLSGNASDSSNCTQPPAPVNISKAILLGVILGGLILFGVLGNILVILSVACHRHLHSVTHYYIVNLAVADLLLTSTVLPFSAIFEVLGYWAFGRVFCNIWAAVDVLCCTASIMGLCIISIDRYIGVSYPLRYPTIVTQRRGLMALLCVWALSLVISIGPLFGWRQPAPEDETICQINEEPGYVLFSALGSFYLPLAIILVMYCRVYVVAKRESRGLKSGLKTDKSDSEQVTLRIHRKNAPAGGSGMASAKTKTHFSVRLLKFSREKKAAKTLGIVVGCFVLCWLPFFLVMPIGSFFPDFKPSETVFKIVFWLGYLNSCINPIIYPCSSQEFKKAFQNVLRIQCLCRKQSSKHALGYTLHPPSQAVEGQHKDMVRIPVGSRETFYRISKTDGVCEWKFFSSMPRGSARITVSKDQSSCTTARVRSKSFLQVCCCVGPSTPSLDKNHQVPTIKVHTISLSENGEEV

muscarinic M1 receptor = target: T2, muscarinic M1 receptor (Homo sapiens, UniProt P11229); details: at 10 μM; cited from earlier work
T2 sequence (P11229 1-460): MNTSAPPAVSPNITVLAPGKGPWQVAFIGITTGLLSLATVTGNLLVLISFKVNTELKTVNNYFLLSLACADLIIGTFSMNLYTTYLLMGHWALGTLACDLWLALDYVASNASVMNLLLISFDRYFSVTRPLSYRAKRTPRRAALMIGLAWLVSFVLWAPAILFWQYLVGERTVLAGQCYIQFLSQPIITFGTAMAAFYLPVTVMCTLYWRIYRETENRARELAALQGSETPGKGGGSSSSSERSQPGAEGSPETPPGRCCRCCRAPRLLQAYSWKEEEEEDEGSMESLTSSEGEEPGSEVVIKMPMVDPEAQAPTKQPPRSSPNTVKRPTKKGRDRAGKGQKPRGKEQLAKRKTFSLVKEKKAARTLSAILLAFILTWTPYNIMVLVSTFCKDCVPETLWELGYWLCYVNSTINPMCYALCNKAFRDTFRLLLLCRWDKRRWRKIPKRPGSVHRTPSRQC

5-HT2B = 5-HT2B (Homo sapiens, UniProt P41595); details: read-out: affinity (Ki) 5-HT2B; cited from earlier work
[2] = tested on: 5-dpf zebrafish larvae challenged with P. aeruginosa LPS 60 μg/mL; format: in vivo, Danio rerio; details: compound 10 μM
[3] = tested on: zebrafish (4 dpf pre-treated, LPS exposure at 5-dpf) challenged with P. aeruginosa LPS 60 μg/mL; format: in vivo, Danio rerio
In short: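 PTU-treated 4 dpf zebrafish embryos received a 24-hour drug pre-treatment at 28.5 °C, alongside an untreated parallel group, before challenge at 5 dpf with P. aeruginosa LPS at 60 μg/mL. Tail edema and mortality were scored at 6 and 24 h post exposure, followed by a neurobehavioral test.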

[4] = number of n = 16 fish, 24-hour 10 μM drug pre-treatment
[5] = number of n = 16 fish, no 24-hour pre-treatment

5-HT2B, sequence (P41595 whole entry, species assumed): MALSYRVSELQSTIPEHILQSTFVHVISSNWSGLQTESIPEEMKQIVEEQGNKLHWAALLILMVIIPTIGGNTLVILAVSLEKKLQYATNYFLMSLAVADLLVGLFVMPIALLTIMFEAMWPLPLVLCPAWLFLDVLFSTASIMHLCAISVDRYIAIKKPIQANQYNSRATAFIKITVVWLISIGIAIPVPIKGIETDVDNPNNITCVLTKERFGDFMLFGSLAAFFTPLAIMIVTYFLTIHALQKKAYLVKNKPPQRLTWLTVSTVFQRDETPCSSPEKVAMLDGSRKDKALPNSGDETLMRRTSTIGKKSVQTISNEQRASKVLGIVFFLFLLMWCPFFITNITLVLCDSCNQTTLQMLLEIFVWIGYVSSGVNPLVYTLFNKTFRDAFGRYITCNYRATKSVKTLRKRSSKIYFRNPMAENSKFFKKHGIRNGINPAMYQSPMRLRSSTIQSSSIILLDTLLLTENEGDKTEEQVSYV

O=c1ccc2ccc(OCCCCN3CCN(c4cccc5sccc45)CC3)cc2[nH]1 [Compound 45, Brexpiprazole]
activity during the dark phase [1]: not significant | Ki (noradrenergic α1A): 3.8 nM | inhibition, muscarinic M1 receptor (muscarinic M1 receptor): 67% | Ki (5-HT2B): 1.9 nM | 5 dpf Embryos Percent Rescue (Mort + Tail Edema) ([2]; 5-dpf larvae): 94% | rescue of tail edema and mortality (sepsis rescue rate) at 5-dpf [2]: 94% | rescue of tail edema and mortality (sepsis rescue rate) at 5-dpf ([2]; listed as brexpiprazole): 100% | Pre-Treatment Rescue (n = 16) ([3]; 24-hour drug pre-treatment, P. aeruginosa LPS 60 μg/mL): 94% | No Pre-Treatment Rescue (n = 16) ([3]; no 24-hour drug pre-treatment, P. aeruginosa LPS 60 μg/mL): 94% | 24 hour Tail Edema, No-Drug Pretreatment ([3]; number of n = 16 fish, 10 μM drug with LPS 60 μg/mL, no 24-hour pre-treatment): 1 fish | 24 Hour Mortality and Tail Edema, Drug Pretreatment [3, 4]: 1 fish | 24 Hour Mortality, Drug Pretreatment [3, 4]: 1 fish | 24 hour Tail Edema, Drug Pretreatment ([3]; number of n = 16 fish, 24-hour 10 μM drug pre-treatment before LPS 60 μg/mL): 0 fish | 24 Hour Mortality and Tail Edema, No-Drug Pretreatment [3, 5]: 1 fish | 24 Hour Mortality, No Drug Pretreatment [3, 5]: 0 fish
